Values after ≈ are worked out from the molar mass of the structure shown.

What all share (assay type): functional
In test [1] the test system is Candida albicans. Briefly: Antifungal activity against Candida albicans assessed as inhibition of fungal growth measured after 48 hrs by CLSI based agar dilution method. (In agar dilution, organisms are placed on agar that contains the substance at set levels.)
For test [2], the system named is Pichia kudriavzevii. As to the kind of experiment: Antifungal activity against Candida krusei assessed as inhibition of fungal growth measured after 48 hrs by CLSI based agar dilution method.
The test system of test [3] is Candida parapsilosis. As to the kind of experiment: Antifungal activity against Candida parapsilosis assessed as inhibition of fungal growth measured after 48 hrs by CLSI based agar dilution method. As to conditions: Lodderomyces parapsilosis.
The test system of test [4] is Candida tropicalis. Briefly: Antifungal activity against Candida tropicalis assessed as inhibition of fungal growth measured after 48 hrs by CLSI based agar dilution method.
For test [5], the system named is Pichia kudriavzevii. As to the kind of experiment: Antifungal activity against Candida krusei ATCC 6258 assessed as inhibition of fungal growth measured after 48 hrs by CLSI based agar dilution method.
Test [6] concerns Cryptococcus neoformans. As to the kind of experiment: Antifungal activity against Cryptococcus neoformans ATCC 32609 assessed as inhibition of fungal growth measured after 48 hrs by CLSI based agar dilution method.

In the case of `CCC(=O)NNC(=O)[C@H]1[C@@H]2C[C@@H](O[C@@H]3O[C@H](C)[C@@H](O)[C@H](N)[C@@H]3O)/C=C/C=C/C=C/C=C/C=C/C=C/C=C/[C@H](C)[C@@H](O)[C@@H](C)[C@H](C)OC(=O)C[C@H](O)C[C@H](O)CC[C@@H](O)[C@H](O)C[C@H](O)C[C@](O)(C[C@@H]1O)O2`, the minimum inhibitory concentration (MIC) in test [1] came out at 0.25 mg/L (≈ 0.251 µM); in test [2], 0.5 mg/L (≈ 0.503 µM); in test [3], 1 mg/L (≈ 1.01 µM); in test [4] it was 0.5 mg/L (≈ 0.503 µM); in test [5], 0.5 mg/L (≈ 0.503 µM); in test [6], 0.03 mg/L (≈ 0.0302 µM).

As to `C[C@@H]1[C@H](O)[C@@H](C)/C=C/C=C/C=C/C=C/C=C/C=C/C=C/[C@H](O[C@@H]2O[C@H](C)[C@@H](O)[C@H](NC(=O)CCN)[C@@H]2O)C[C@@H]2O[C@](O)(C[C@@H](O)C[C@@H](O)[C@H](O)CC[C@@H](O)C[C@@H](O)CC(=O)O[C@H]1C)C[C@H](O)[C@H]2C(=O)NCCN(C)C`, the minimal inhibitory concentration (MIC) in test [1] is 0.5 mg/L (≈ 0.469 µM); in test [2], 0.5 mg/L (≈ 0.469 µM); in test [3] it was 2 mg/L (≈ 1.88 µM); in test [4] it was 0.5 mg/L (≈ 0.469 µM); in test [5], 16 mg/L (≈ 15 µM); in test [6], 0.125 mg/L (≈ 0.117 µM).

For `CNCC(=O)N[C@@H]1[C@H](O)[C@H](O[C@H]2/C=C/C=C/C=C/C=C/C=C/C=C/C=C/[C@H](C)[C@@H](O)[C@@H](C)[C@H](C)OC(=O)C[C@H](O)C[C@H](O)CC[C@@H](O)[C@H](O)C[C@H](O)C[C@]3(O)C[C@H](O)[C@@H](C(=O)NCCN(C)C)[C@H](C2)O3)O[C@H](C)[C@H]1O`, the MIC was determined as 2 mg/L (≈ 1.88 µM) in test [1]; 2 mg/L (≈ 1.88 µM) in test [2]; 2 mg/L (≈ 1.88 µM) in test [3]; 4 mg/L (≈ 3.75 µM) in test [4]; 16 mg/L (≈ 15 µM) in test [5]; 0.5 mg/L (≈ 0.469 µM) in test [6].

With `COC(=O)NNC(=O)[C@H]1[C@@H]2C[C@@H](O[C@@H]3O[C@H](C)[C@@H](O)[C@H](NC(=O)CCN)[C@@H]3O)/C=C/C=C/C=C/C=C/C=C/C=C/C=C/[C@H](C)[C@@H](O)[C@@H](C)[C@H](C)OC(=O)C[C@H](O)C[C@H](O)CC[C@@H](O)[C@H](O)C[C@H](O)C[C@](O)(C[C@@H]1O)O2`, the MIC in test [1] amounted to 0.25 mg/L (≈ 0.234 µM); in test [2], 0.5 mg/L (≈ 0.468 µM); in test [3] it was 8 mg/L (≈ 7.5 µM); in test [4], 8 mg/L (≈ 7.5 µM); in test [5], 8 mg/L (≈ 7.5 µM); in test [6] it was 0.25 mg/L (≈ 0.234 µM).

With `C[C@@H]1[C@H](O)[C@@H](C)/C=C/C=C/C=C/C=C/C=C/C=C/C=C/[C@H](O[C@@H]2O[C@H](C)[C@@H](O)[C@H](N)[C@@H]2O)C[C@@H]2O[C@](O)(C[C@@H](O)C[C@@H](O)[C@H](O)CC[C@@H](O)C[C@@H](O)CC(=O)O[C@H]1C)C[C@H](O)[C@H]2C(=O)NNC(=O)c1ccccc1`, the minimal inhibitory concentration (MIC) in test [1] turned out to be 0.5 mg/L (≈ 0.48 µM); in test [2], 1 mg/L (≈ 0.959 µM); in test [3], 4 mg/L (≈ 3.84 µM); in test [4], 4 mg/L (≈ 3.84 µM); in test [5] it was 2 mg/L (≈ 1.92 µM); in test [6], 0.5 mg/L (≈ 0.48 µM).

Turning to `C[C@@H]1[C@H](O)[C@@H](C)/C=C/C=C/C=C/C=C/C=C/C=C/C=C/[C@H](O[C@@H]2O[C@H](C)[C@@H](O)[C@H](NC(=O)CCN)[C@@H]2O)C[C@@H]2O[C@](O)(C[C@@H](O)C[C@@H](O)[C@H](O)CC[C@@H](O)C[C@@H](O)CC(=O)O[C@H]1C)C[C@H](O)[C@H]2C(=O)NCCN`, the minimal inhibitory concentration (MIC) worked out at 0.125 mg/L (≈ 0.121 µM) in test [1]; 0.5 mg/L (≈ 0.482 µM) in test [2]; 0.125 mg/L (≈ 0.121 µM) in test [3]; 0.25 mg/L (≈ 0.241 µM) in test [4]; 1 mg/L (≈ 0.964 µM) in test [5]; 0.25 mg/L (≈ 0.241 µM) in test [6].

As for `CNCC(=O)N[C@@H]1[C@H](O)[C@H](O[C@H]2/C=C/C=C/C=C/C=C/C=C/C=C/C=C/[C@H](C)[C@@H](O)[C@@H](C)[C@H](C)OC(=O)C[C@H](O)C[C@H](O)CC[C@@H](O)[C@H](O)C[C@H](O)C[C@]3(O)C[C@H](O)[C@@H](C(=O)NNC(C)=O)[C@H](C2)O3)O[C@H](C)[C@H]1O`, the MIC turned out to be 0.125 mg/L (≈ 0.119 µM) in test [1]; 0.5 mg/L (≈ 0.476 µM) in test [2]; 2 mg/L (≈ 1.9 µM) in test [3]; 4 mg/L (≈ 3.81 µM) in test [4]; 4 mg/L (≈ 3.81 µM) in test [5]; 0.125 mg/L (≈ 0.119 µM) in test [6].

Consider `C[C@@H]1[C@H](O)[C@@H](C)/C=C/C=C/C=C/C=C/C=C/C=C/C=C/[C@H](O[C@@H]2O[C@H](C)[C@@H](O)[C@H](NC(=O)CN)[C@@H]2O)C[C@@H]2O[C@](O)(C[C@@H](O)C[C@@H](O)[C@H](O)CC[C@@H](O)C[C@@H](O)CC(=O)O[C@H]1C)C[C@H](O)[C@H]2C(=O)NCCO`, for which the minimal inhibitory concentration (MIC) in test [1] amounted to 1 mg/L (≈ 0.976 µM); in test [2] it was 2 mg/L (≈ 1.95 µM); in test [3], 4 mg/L (≈ 3.91 µM); in test [4], 4 mg/L (≈ 3.91 µM); in test [5] it was 4 mg/L (≈ 3.91 µM); in test [6], 2 mg/L (≈ 1.95 µM).

As to `CNCC(=O)N[C@@H]1[C@H](O)[C@H](O[C@H]2/C=C/C=C/C=C/C=C/C=C/C=C/C=C/[C@H](C)[C@@H](O)[C@@H](C)[C@H](C)OC(=O)C[C@H](O)C[C@H](O)CC[C@@H](O)[C@H](O)C[C@H](O)C[C@]3(O)C[C@H](O)[C@@H](C(=O)N4CCN(C(=O)COCCOC)CC4)[C@H](C2)O3)O[C@H](C)[C@H]1O`, the MIC amounted to 4 mg/L (≈ 3.39 µM) in test [1]; 8 mg/L (≈ 6.78 µM) in test [2]; 4 mg/L (≈ 3.39 µM) in test [3]; 16 mg/L (≈ 13.6 µM) in test [4]; 16 mg/L (≈ 13.6 µM) in test [5]; 4 mg/L (≈ 3.39 µM) in test [6].

For `CNCC(=O)N[C@@H]1[C@H](O)[C@H](O[C@H]2/C=C/C=C/C=C/C=C/C=C/C=C/C=C/[C@H](C)[C@@H](O)[C@@H](C)[C@H](C)OC(=O)C[C@H](O)C[C@H](O)CC[C@@H](O)[C@H](O)C[C@H](O)C[C@]3(O)C[C@H](O)[C@@H](C(=O)NCCCN(C)C)[C@H](C2)O3)O[C@H](C)[C@H]1O`, the MIC worked out at 2 mg/L (≈ 1.85 µM) in test [1]; 2 mg/L (≈ 1.85 µM) in test [2]; 4 mg/L (≈ 3.71 µM) in test [3]; 2 mg/L (≈ 1.85 µM) in test [4]; 16 mg/L (≈ 14.8 µM) in test [5]; 1 mg/L (≈ 0.926 µM) in test [6].

As for `C[C@@H]1[C@H](O)[C@@H](C)/C=C/C=C/C=C/C=C/C=C/C=C/C=C/[C@H](O[C@@H]2O[C@H](C)[C@@H](O)[C@H](NC(=O)COCCN)[C@@H]2O)C[C@@H]2O[C@](O)(C[C@@H](O)C[C@@H](O)[C@H](O)CC[C@@H](O)C[C@@H](O)CC(=O)O[C@H]1C)C[C@H](O)[C@H]2C(=O)N1CCN(CCO)CC1`, the MIC in test [1] came to 0.5 mg/L (≈ 0.44 µM); in test [2] it was 2 mg/L (≈ 1.76 µM); in test [3], 2 mg/L (≈ 1.76 µM); in test [4], 0.25 mg/L (≈ 0.22 µM); in test [5] it was 16 mg/L (≈ 14.1 µM); in test [6], 0.5 mg/L (≈ 0.44 µM).

As for `CNCC(=O)N[C@@H]1[C@H](O)[C@H](O[C@H]2/C=C/C=C/C=C/C=C/C=C/C=C/C=C/[C@H](C)[C@@H](O)[C@@H](C)[C@H](C)OC(=O)C[C@H](O)C[C@H](O)CC[C@@H](O)[C@H](O)C[C@H](O)C[C@]3(O)C[C@H](O)[C@@H](C(=O)N4CCN(CCS(C)(=O)=O)CC4)[C@H](C2)O3)O[C@H](C)[C@H]1O`, the minimal inhibitory concentration (MIC) in test [1] was found to be 2 mg/L (≈ 1.71 µM); in test [2], 4 mg/L (≈ 3.42 µM); in test [3] it was 2 mg/L (≈ 1.71 µM); in test [4], 4 mg/L (≈ 3.42 µM); in test [5] it was 16 mg/L (≈ 13.7 µM); in test [6], 2 mg/L (≈ 1.71 µM).

With `CC(C)C(=O)NNC(=O)[C@H]1[C@@H]2C[C@@H](O[C@@H]3O[C@H](C)[C@@H](O)[C@H](N)[C@@H]3O)/C=C/C=C/C=C/C=C/C=C/C=C/C=C/[C@H](C)[C@@H](O)[C@@H](C)[C@H](C)OC(=O)C[C@H](O)C[C@H](O)CC[C@@H](O)[C@H](O)C[C@H](O)C[C@](O)(C[C@@H]1O)O2`, the MIC in test [1] is 0.03 mg/L (≈ 0.0298 µM); in test [2], 0.5 mg/L (≈ 0.496 µM); in test [3], 1 mg/L (≈ 0.992 µM); in test [4] it was 0.5 mg/L (≈ 0.496 µM); in test [5], 1 mg/L (≈ 0.992 µM); in test [6] it was 0.06 mg/L (≈ 0.0595 µM).

By MIC is commonly meant the smallest concentration in the dilution series that meets the test's criterion for growth inhibition.

These data come from ChEMBL document CHEMBL5143732 (J Med Chem, 2022).
